Laboratory results reported in PMC9721426, “Novel piperine-carboximidamide hybrids: design, synthesis, and antiproliferative activity via a multi-targeted inhibitory pathway” (Journal of Enzyme Inhibition and Medicinal Chemistry, 2022).

Assays:
[1] = test system: four human cancer cell lines (Panc-1, MCF-7, HT-29, A-549); assay: Antiproliferative MTT assay, average (GI50) over the four cancer cell lines; assay type: cell-based; conditions: for GI50: Homo sapiens, average of IC50 versus A-549, MCF-7, Panc-1, HT-29; for GI50 potency relative to VIi (less potent): ratio of GI50 values
Method: The average (GI50) versus the four cancer cell lines was chosen for ease of manipulation.
(§1) The MTT assay was performed using various cell lines in accordance with previously reported procedures[28]^,[29] to investigate the antiproliferative potential of VIa-k. Refer to Appendix A. […]
(§2) added (in 200 μL medium to yield a final concentration of 0.1% v/v) to the wells of plates. A single compound was designated with four wells followed by incubation of […]
(§3) After incubation, medium was removed completely from the plates followed by addition of MTT (0.4 mg/mL in medium) to each well and subsequent incubation of plates for 3h. MTT (along with the medium) was removed and DMSO (150μL) was added to each well of the culture plates, followed by vortexing and subsequent measurement of absorbance (at 540 nm) using microplate reader. The data are shown as percentage inhibition of proliferation in comparison with controls containing 4.2.1.2. Assay for antiproliferative effect […]
(§4) The percentage cytotoxicity of compounds was calculated using the following […]
(§5) Where ATC= Absorbance of treated cells and AC= Absorbance of control. […]
(§6) used as positive control in the assay. […]

[2] = test system: A-549 (epithelial cancer cell line); assay: Antiproliferative MTT assay, A-549; assay type: cell-based; conditions: Homo sapiens, A549; A-549, MTT; read-out: Antiproliferative activity IC50 ± SEM, A-549
Method: as §1, §2, §3, §4, §5, §6

[3] = test system: MCF-7 (breast cancer cell line); assay: Antiproliferative MTT assay, MCF-7; assay type: cell-based; conditions: Homo sapiens, MCF7; MCF-7, MTT; read-out: Antiproliferative activity IC50 ± SEM, MCF-7
Method: as §1, §2, §3, §4, §5, §6

[4] = test system: Panc-1 (pancreatic cancer cell line); assay: Antiproliferative MTT assay, Panc-1; assay type: cell-based; conditions: Homo sapiens; Panc-1, MTT; read-out: Antiproliferative activity IC50 ± SEM, Panc-1
Method: as §1, §2, §3, §4, §5, §6

[5] = test system: HT-29 (colon cancer cell line); assay: Antiproliferative MTT assay, HT-29; assay type: cell-based; conditions: Homo sapiens; HT-29, MTT; read-out: Antiproliferative activity IC50 ± SEM, HT-29
Method: as §1, §2, §3, §4, §5, §6

[6] = MTT cell viability assay on normal mammary epithelial cells; assay type: cell-based; conditions: human, MCF-10A mammary epithelial cells, MCF-10A normal cells, 4 days incubation
Method: A human mammary gland epithelial (MCF-10A) normal cell line was used to perform the viability test. The viability of compounds VIa-k was determined using the MTT assay after 4 days of incubation with MCF-10A cells[26]^,[27].
The MTT assay was used to assess how the synthetic compounds impacted the viability of mammary epithelial cells (MCF-10A)[26]^,[27]. Appendix A. […]
4.2. Biological evaluation
4.2.1. Cytotoxic activity using MTT Assay and evaluation of IC50
MTT assay was carried out to study the effect of compounds on mammary epithelial cells (MCF-10A)26,27. The medium in which cells were propagated contained Dulbecco's modified Eagle's medium (DMEM)/ Ham's F-12 medium (1:1) supplemented with epidermal growth factor (20 ng/mL), hydrocortisone (500 ng/mL), insulin (10 μg/mL), 2 mM glutamine and 10% foetal calf serum. After every 2-3 days, the cells were passaged using trypsin ethylenediamine tetra acetic acid (EDTA). The cells were seeded at a density of 10^4 cells mL-1 in flat-bottomed culture plates containing 96 wells each. […]
A single compound was designated with four wells followed by incubation of plates for 96h at 37°C. After incubation, medium was removed completely from the plates followed by addition of MTT (0.4 mg/mL in medium) to each well and subsequent incubation of plates for 3h. MTT (along with the medium) was removed and DMSO (150μL) was added to each well of the culture plates, followed by vortexing and subsequent measurement of absorbance (at 540 nm) using microplate reader. […]

BRAF^V600E = molecular target: T1, BRAF^V600E (Mus musculus, UniProt P28028, V585E); assay: BRAF V600E kinase assay; assay type: biochemical; conditions: read-out: BRAF^V600E inhibition IC50 ± SEM
T1 construct: Mouse full-length GST-tagged BRAFV600E; GST; purchased Invitrogen PV3849
Method: An in vitro study was conducted to evaluate the anti-BRAF^V600E of VIc, VIf, VIg, VIi, and VIk[31]. […] An in vitro study[31] was conducted to evaluate the anti-BRAF^V600E of VIc, VIf, VIg, VIi, and Vik. See Appendix A.
4.2.1.4. BRAF kinase assay
V600E mutant BRAF kinase assay was performed to investigate the activity of the most […]
Mouse full-length GST-tagged BRAFV600E (7.5 ng, Invitrogen, PV3849) was pre-incubated with drug (1 µL) and assay dilution buffer (4 µL) for 60 min at 25 °C. In assay dilution buffer, a solution (5 µL) containing MgCl 2 (30 mM), ATP (200 µM), recombinant human full length (200 ng) […] N-terminal His-tagged MEK1 (Invitrogen) was added to start the assay, subsequent to incubation for 25 min at 25 °C. The assay was stopped using 5X protein denaturing buffer (LDS) solution (5 µL).
To further denature the protein, heat (70° C) was applied for 5 min.
NuPage gel plates (Invitrogen) were used to carry out electrophoresis (at 200 V). 10 µL of each reaction was loaded into the precast plates and electrophoresis was allowed to proceed. After completion of electrophoresis, the front part of the precast gel plate (holding hot ATP) was cut and afterw ards cast-off. The dried gel was developed using a […]
that containing no inhibitor served as positive control. […]

EGFR = molecular target: T2, EGFR (Homo sapiens, UniProt P00533); assay: EGFR-TK inhibitory assay; assay type: biochemical; conditions: for IC50: EGFR-TK assay, read-out: EGFR inhibition IC50 ± SEM
T2 construct: cytoplasmic domain (EGFR -CD, amino acids 645–1186); His6 (N); made in house; host or cells: Sf-9 insect cells (baculovirus, pBlueBacHis2B / pFASTBacHTc)
Method: 4.2.1.3. EGFR inhibitory assay
EGFR-TK assay was performed to evaluate the inhibitory potency of the tested compounds against EGFR30. Baculoviral expression vectors including pBlueBacHis2B […]
sequence comprised a sequence that encoded (His) 6. Sf-9 cells were infected for 72h for protein expression. The pellets of Sf-9 cells were solubilized in a buffer containing sodium vanadate (100 µM), aprotinin (10 µg/mL), triton (1%), HEPES buffer (50mM), ammonium molybdate (10 µM), benzamidine HCl (16 µg/mL), NaCl (10 mM), leupeptin (10 µg/mL) and pepstatin (10 µg/mL) at 0°C for 20 min at pH 7.4, followed by centrifugation for 20 min. To eliminate the non-specifically bound material, a Ni-NTA super flow packed column was used to pass through and wash the crude extract supernatant first with 10 mM and then with 100 mM imidazole. […]
NaCl (50 mM), HEPES (20 mM), glycerol (10%) and 1 µg/mL each of aprotinin, leupeptin and pepstatin for 120 min. The purification was performed either at 4 °C or on ice. To record autophosphorylation level, EGFR kinase assay was carried out on the basis of DELFIA/Time-Resolved Fluorometry. The compounds were first dissolved in DMSO […]
pH 7.4. Each compound (10 µL) was incubated with recombinant enzyme (10 µL, 5 ng for EGFR, 1:80 dilution in 100 mM HEPES) for 10 min at 25 °C, subsequent to the addition of 5X buffer (10 µL, containing 2 mM MnCl2, 100 µM Na3VO4, 20 mM HEPES and 1 mM DTT) and ATP-MgCl2 (20 µL, containing 0.1 mM ATP and 50 mM MgCl 2) and incubation for 1h. The negative and positive controls were included in each plate by the incuba tion of enzyme either with or without ATP -MgCl2. The liquid was removed after incubation and the plates were washed thrice using wash buffer. Europium -tagged antiphosphotyrosine antibody (75 µL, 400 ng) was added to each well followed by incubation of 1h a nd then washing of the plates using buffer. The enhancement solution was added to each well and the signal was recorded at excitation and emission […]
The autophosphorylation percentage inhibition by compounds was calculated using the following equation: […]
Using the curves of percentage inhibition of eight concentrations of each compound, IC 50

Human CDK2/A2 = Human CDK2/A2 (Homo sapiens, UniProt P24941); assay: CDK2 inhibitory assay
Method: Protein Kinase Assays. Human CDK2/A2 was purchased from New England Biolabs IC50 values for CDK2/A were determined according to the supplier’s instructions

T2 sequence (P00533 669-1210): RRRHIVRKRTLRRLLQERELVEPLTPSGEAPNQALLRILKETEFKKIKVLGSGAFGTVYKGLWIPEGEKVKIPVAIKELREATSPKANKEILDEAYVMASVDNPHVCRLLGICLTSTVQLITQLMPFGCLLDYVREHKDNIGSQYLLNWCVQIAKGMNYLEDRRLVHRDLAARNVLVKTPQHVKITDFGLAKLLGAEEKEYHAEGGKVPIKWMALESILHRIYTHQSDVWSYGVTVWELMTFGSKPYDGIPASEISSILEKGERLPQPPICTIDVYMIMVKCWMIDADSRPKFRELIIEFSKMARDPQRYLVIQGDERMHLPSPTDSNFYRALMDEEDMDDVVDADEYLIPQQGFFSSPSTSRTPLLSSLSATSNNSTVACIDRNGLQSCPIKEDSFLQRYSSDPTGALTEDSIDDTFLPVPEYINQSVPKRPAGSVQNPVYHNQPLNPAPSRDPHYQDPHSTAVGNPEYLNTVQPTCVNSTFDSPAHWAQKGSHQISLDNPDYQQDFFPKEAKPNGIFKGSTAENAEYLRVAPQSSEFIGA
T1 sequence (P28028 whole entry V585E): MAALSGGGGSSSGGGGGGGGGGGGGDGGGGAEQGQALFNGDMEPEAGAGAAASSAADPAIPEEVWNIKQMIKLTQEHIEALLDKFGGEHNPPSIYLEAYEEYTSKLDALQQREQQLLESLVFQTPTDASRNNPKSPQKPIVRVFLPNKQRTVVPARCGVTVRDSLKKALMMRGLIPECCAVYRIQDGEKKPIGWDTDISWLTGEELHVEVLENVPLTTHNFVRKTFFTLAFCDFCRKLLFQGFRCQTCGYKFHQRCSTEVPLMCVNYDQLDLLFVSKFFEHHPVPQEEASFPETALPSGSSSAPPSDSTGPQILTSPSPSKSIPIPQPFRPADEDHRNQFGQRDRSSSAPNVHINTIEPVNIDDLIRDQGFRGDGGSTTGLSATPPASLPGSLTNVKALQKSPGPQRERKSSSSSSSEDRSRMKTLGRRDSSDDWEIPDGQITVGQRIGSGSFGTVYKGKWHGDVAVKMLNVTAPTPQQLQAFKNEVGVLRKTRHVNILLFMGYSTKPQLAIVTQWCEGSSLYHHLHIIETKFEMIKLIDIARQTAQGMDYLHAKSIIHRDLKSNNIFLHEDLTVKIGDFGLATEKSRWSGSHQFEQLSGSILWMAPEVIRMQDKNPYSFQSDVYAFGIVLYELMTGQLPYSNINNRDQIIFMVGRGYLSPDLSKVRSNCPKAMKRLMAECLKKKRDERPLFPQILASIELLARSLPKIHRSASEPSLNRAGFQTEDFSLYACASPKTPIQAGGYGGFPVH

Cc1ccc(C(N)=NOC(=O)/C=C/C=C/c2ccc3c(c2)OCO3)cc1 [VIe, N'-{[(2E,4E)-5-(2H-1,3-Benzodioxol-5-yl)penta-2,4-dienoyl]oxy}-4-methylbenzene-1-carboximidamide]
melting point: 185 to 188 °C | GI50 [1]: 73 nM | IC50 [2]: 69 ± 7 nM | IC50 [3]: 73 ± 7 nM | IC50 [4]: 75 ± 7 nM | IC50 [5]: 75 ± 7 nM | viability at 4 days, 50 µM [6]: 89%

NC(=NOC(=O)/C=C/C=C/c1ccc2c(c1)OCO2)c1cccc(Cl)c1 [VIg, N'-{[(2E,4E)-5-(2H-1,3-benzodioxol-5-yl)penta-2,4-dienoyl]oxy}-3-chlorobenzene-1-carboximidamide]
melting point: 163 to 165 °C | GI50 [1]: 47 nM | IC50 [2]: 42 ± 5 nM | IC50 [3]: 47 ± 5 nM | IC50 [4]: 49 ± 5 nM | IC50 (BRAF^V600E): 63 ± 6 nM | IC50 (EGFR): 96 ± 6 nM | EGFR potency relative to erlotinib (lower) (EGFR; ratio of IC50 values): 1.2 fold | IC50 [5]: 49 ± 5 nM | IC50 (Human CDK2/A2): 20 ± 2 nM | viability at 4 days, 50 µM [6]: 87%

NC(=NOC(=O)/C=C/C=C/c1ccc2c(c1)OCO2)c1ccccc1 [VIa, N'-{[(2E,4E)-5-(2H-1,3-Benzodioxol-5-yl)penta-2,4-dienoyl]oxy}benzene carboximidamide]
melting point: 175 to 177 °C | GI50 [1]: 100 nM | IC50 [2]: 95 ± 10 nM | IC50 [3]: 97 ± 10 nM | IC50 [4]: 104 ± 10 nM | IC50 [5]: 105 ± 10 nM | viability at 4 days, 50 µM [6]: 89%

NC(=NOC(=O)/C=C/C=C/c1ccc2c(c1)OCO2)c1ccc(Cl)cc1 [VIb, N'-{[(2E,4E)-5-(2H-1,3-Benzodioxol-5-yl)penta-2,4-dienoyl]oxy}-4-chlorobenzene-1-carboximidamide]
melting point: 157 to 160 °C | GI50 [1]: 57 nM | IC50 [2]: 55 ± 6 nM | IC50 [3]: 57 ± 6 nM | IC50 [4]: 59 ± 6 nM | IC50 [5]: 58 ± 6 nM | viability at 4 days, 50 µM [6]: 85%

N/C(=N/OC(=O)/C=C/C=C/c1ccc2c(c1)OCO2)c1cccc2ccccc12 [VIj, N'-{[(2E,4E)-5-(2H-1,3-benzodioxol-5-yl)penta-2,4-dienoyl]oxy} naphthalene-1-carboximidamide]
GI50 [1]: 83 nM | GI50 potency relative to VIi (less potent) [1]: 2 fold | IC50 [2]: 78 ± 8 nM | IC50 [3]: 81 ± 8 nM | IC50 [4]: 84 ± 8 nM | IC50 [5]: 88 ± 9 nM | viability at 4 days, 50 µM [6]: 85%

COc1ccc(C(N)=NOC(=O)/C=C/C=C/c2ccc3c(c2)OCO3)cc1OC [VIi, N'-{[(2E,4E)-5-(2H-1,3-benzodioxol-5-yl)penta-2,4-dienoyl]oxy}-3,4-dimethoxybenzene-1-carboximidamide]
melting point: 147 to 149 °C | GI50 [1]: 39 nM | IC50 [2]: 36 ± 4 nM | IC50 [3]: 39 ± 3 nM | IC50 [4]: 40 ± 4 nM | IC50 (BRAF^V600E): 72 ± 7 nM | IC50 (EGFR): 120 ± 10 nM | IC50 [5]: 40 ± 4 nM | IC50 (Human CDK2/A2): 17 ± 2 nM | viability at 4 days, 50 µM [6]: 89%

NC(=NOC(=O)/C=C/C=C/c1ccc2c(c1)OCO2)c1cccc(Br)c1 [VIh, N'-{[(2E,4E)-5-(2H-1,3-benzodioxol-5-yl)penta-2,4-dienoyl]oxy}-3-bromobenzene-1-carboximidamide]
melting point: 141 to 143 °C | GI50 [1]: 65 nM | IC50 [2]: 61 ± 6 nM | IC50 [3]: 64 ± 6 nM | IC50 [4]: 69 ± 6 nM | IC50 [5]: 67 ± 6 nM | viability at 4 days, 50 µM [6]: 91%

COc1ccc(C(N)=NOC(=O)/C=C/C=C/c2ccc3c(c2)OCO3)cc1 [VId, N'-{[(2E,4E)-5-(2H-1,3-Benzodioxol-5-yl)penta-2,4-dienoyl]oxy}-4-methoxybenzene-1-carboximidamide]
GI50 [1]: 54 nM | GI50 potency relative to VIi (less potent) [1]: about 1.4 fold | IC50 [2]: 50 ± 5 nM | IC50 [3]: 52 ± 5 nM | IC50 [4]: 57 ± 5 nM | IC50 [5]: 57 ± 5 nM | viability at 4 days, 50 µM [6]: 91%
